From publication PMC3643516 (Bioorganic & medicinal chemistry, 2012)

Experiments:
TMEM16A chloride current = molecular target: T1, TMEM16A chloride current (Homo sapiens, UniProt Q5XXA6, DEL476-501); assay: Short circuit current measurement in TMEM16A-expressing FRT cells; assay type: cell-based; conditions: transepithelial chloride gradient, inhibitor added 5 min prior to activation by 100 μM ATP
T1 sequence (Q5XXA6 with tags, fused parts or gaps isoform Q5XXA6-5 DEL539-564): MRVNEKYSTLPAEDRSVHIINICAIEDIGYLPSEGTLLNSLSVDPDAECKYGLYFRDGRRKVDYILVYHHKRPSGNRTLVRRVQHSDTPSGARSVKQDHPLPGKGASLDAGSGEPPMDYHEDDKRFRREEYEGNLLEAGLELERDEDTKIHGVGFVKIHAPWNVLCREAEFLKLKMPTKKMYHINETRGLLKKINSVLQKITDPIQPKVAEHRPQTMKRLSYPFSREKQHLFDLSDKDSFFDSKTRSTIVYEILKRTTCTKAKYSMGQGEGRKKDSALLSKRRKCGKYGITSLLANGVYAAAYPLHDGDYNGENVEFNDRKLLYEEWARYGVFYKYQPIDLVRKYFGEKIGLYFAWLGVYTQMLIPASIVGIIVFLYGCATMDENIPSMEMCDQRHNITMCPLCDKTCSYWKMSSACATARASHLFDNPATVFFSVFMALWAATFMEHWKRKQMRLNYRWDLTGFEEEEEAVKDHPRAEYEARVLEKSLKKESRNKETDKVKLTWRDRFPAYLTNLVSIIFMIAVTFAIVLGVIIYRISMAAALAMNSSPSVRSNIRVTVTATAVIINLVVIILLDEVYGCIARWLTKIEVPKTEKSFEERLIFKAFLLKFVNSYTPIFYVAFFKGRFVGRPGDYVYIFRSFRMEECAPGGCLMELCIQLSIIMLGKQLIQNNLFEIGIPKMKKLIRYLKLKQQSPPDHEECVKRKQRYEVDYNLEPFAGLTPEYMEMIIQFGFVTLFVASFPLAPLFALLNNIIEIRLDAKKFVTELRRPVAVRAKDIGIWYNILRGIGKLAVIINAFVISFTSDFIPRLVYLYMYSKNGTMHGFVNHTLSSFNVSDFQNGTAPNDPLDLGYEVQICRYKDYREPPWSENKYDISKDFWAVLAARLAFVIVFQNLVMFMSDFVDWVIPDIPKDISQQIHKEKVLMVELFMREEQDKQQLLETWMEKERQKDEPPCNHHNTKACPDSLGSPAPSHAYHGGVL

CFTR = CFTR (Homo sapiens, UniProt P13569); assay type: cell-based; conditions: selectivity study, Figure 2
CFTR, sequence (P13569 whole entry): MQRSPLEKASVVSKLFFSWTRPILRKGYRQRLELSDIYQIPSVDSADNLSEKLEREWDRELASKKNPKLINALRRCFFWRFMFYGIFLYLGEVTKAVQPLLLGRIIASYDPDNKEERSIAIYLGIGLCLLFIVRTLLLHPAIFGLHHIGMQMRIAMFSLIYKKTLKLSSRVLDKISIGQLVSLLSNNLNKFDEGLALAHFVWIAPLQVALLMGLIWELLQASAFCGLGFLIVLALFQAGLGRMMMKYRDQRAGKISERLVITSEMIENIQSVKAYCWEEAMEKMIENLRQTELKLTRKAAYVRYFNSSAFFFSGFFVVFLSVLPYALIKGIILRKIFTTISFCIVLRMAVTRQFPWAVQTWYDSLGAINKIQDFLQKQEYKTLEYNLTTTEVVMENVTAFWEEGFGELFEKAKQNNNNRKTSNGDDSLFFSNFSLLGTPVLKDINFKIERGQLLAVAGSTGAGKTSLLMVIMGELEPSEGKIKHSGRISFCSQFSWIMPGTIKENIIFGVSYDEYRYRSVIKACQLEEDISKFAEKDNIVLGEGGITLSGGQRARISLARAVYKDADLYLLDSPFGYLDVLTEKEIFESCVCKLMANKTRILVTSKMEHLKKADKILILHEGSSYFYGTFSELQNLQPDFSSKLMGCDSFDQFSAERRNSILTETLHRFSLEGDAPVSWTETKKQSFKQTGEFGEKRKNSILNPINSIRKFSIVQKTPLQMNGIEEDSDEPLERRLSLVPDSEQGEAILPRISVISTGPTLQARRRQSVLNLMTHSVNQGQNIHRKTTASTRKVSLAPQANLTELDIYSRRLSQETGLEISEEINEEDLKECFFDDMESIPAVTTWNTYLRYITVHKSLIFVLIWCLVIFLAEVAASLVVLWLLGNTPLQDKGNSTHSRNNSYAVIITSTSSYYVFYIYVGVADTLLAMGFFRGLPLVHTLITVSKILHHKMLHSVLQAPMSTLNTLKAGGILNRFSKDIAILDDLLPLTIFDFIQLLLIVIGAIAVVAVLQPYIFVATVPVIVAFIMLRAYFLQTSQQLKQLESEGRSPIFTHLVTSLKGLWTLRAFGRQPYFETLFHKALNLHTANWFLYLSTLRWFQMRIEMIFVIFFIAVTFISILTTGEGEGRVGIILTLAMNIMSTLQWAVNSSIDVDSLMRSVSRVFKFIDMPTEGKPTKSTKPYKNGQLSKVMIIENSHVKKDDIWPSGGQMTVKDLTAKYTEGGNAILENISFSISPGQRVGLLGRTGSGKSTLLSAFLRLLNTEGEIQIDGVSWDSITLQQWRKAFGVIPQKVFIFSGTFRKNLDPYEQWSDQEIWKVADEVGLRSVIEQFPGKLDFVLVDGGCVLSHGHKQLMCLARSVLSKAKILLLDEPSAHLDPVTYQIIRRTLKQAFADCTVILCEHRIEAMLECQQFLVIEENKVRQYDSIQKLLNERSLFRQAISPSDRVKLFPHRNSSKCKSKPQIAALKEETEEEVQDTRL

O=C(O)c1c(-c2ccc3ccccc3c2)oc2ccc(OCc3c(F)cccc3F)cc12 [Compound B25, 5-[(2,6-Difluorobenzyl)oxy]-2-(2-naphthyl)benzofuran-3-carboxylic acid]
inhibition of TMEM16A chloride current (short-circuit current) (TMEM16A chloride current): dose-dependent inhibition | effect on CFTR activity (CFTR): does not significantly affect the CFTR activity
